According to patent US12522572B2, “Isoxazole hydroxamic acids as histone deacetylase 6 inhibitors” (The George Washington University, A Congressionally …, priority 2017, dated 2026):
Entries after “also recorded” stand apart in the source; their conditions may differ.

Assays:
[1] = molecular target: T1, Human HDAC1 (Homo sapiens, UniProt Q13547); assay: HDAC isoform inhibition, HDAC1; type: biochemical; details: duplicate 10-dose IC50 mode, 3-fold serial dilution starting at 30 μM
T1 construct: Full length with C-terminal GST tag, MW=79.9 kDa; GST (C); host or cells: Sf9 insect cells, baculovirus expression system
T1 sequence (Q13547 whole entry, canonical isoform): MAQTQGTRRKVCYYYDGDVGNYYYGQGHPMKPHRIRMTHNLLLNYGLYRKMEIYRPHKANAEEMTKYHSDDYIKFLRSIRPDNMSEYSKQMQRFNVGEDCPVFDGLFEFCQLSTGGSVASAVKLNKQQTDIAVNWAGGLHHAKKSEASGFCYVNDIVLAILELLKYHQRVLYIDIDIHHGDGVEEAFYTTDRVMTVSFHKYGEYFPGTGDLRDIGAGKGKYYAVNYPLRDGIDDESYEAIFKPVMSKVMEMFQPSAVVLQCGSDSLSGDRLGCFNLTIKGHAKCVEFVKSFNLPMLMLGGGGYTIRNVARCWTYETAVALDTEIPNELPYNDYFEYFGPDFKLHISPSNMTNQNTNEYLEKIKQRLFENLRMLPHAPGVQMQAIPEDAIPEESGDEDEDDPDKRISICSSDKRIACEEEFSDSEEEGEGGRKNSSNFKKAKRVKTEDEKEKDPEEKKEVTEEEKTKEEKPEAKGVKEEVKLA

[2] = molecular target: T2, Human HDAC6 (Homo sapiens, UniProt Q9UBN7); assay: HDAC isoform inhibition, HDAC6; type: biochemical; details: for IC50: duplicate 10-dose IC50 mode, 3-fold serial dilution starting at 30 μM; for Selectivity HDAC1/HDAC6: ratio of HDAC1 IC50 to HDAC6 IC50
T2 construct: Full length with N-terminal GST tag, MW=159 kDa; GST (N); host or cells: Sf9 insect cells, baculovirus expression system
T2 sequence (Q9UBN7 1-1215): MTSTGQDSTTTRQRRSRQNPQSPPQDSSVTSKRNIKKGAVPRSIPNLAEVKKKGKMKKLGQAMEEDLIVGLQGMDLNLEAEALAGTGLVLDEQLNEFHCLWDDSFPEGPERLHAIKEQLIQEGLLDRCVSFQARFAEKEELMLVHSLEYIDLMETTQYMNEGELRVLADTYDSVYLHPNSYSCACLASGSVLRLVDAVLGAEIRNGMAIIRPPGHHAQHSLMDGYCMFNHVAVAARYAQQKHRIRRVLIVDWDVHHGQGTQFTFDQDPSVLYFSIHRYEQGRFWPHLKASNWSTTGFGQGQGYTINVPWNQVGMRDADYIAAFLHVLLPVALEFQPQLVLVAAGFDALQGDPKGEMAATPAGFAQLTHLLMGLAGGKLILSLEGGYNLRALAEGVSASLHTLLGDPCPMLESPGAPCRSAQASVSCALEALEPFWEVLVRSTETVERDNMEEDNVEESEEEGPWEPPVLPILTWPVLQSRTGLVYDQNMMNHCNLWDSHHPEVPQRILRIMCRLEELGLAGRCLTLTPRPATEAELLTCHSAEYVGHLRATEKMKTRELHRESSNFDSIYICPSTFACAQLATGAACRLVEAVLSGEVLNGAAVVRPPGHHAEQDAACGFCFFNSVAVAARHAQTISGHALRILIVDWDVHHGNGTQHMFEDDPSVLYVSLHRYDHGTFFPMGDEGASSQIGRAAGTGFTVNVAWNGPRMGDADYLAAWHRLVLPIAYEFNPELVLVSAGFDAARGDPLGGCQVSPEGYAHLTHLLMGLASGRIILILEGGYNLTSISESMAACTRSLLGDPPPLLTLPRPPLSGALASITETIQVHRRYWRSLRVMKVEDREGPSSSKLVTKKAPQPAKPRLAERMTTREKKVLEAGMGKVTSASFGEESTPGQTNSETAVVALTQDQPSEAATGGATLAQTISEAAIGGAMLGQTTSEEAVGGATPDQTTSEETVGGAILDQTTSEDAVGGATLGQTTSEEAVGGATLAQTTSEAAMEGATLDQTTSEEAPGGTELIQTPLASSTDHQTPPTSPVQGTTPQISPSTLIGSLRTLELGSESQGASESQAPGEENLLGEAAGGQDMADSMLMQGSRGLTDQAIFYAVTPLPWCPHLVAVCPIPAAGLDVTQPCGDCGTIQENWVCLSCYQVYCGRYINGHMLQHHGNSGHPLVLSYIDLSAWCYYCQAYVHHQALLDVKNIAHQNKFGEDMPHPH

[3] = test system: Human melanoma WM164 cells; assay: Immunoblot of acetylated tubulin in WM164 cells; type: cell-based; details: different concentrations, presence or absence of IL-6 (30 ng/uL) or IFNg (100 ng/uL)
Experimental: Human Melanoma cells WM164 were cultured in RPMI 1640 media, supplemented with 10% FBS, penicillin/streptomycin (50 U/ml), L-glutamine (2 mM), and 2-mercaptoethanol (50 μM) (complete media), and grown under humidified conditions at 37° C. and 5% CO2.
The cells were lysed in a buffer containing 280 mM NaCl, 50 mM Tris HCL PH 8.0, 0.5% Igepal, 5 mM MgCl2, 10% glycerol and 1× protease inhibitor (Roche), phosphatase inhibitor (Santa Cruz Biotechnology). Lysates were sonicated on ice for […] (2 cycles of 30 s on, 30 s rest) and then mixed with 6× gel loading buffer and boiled for 5 minutes. Samples were then resolved on 10% or 4-15% gradient gels and transferred to nitrocellulose membranes. Membranes were blocked with 5% milk-PBS-Tween. Bands were detected by scanning blots with an LI-COR Odyssey imaging system using both 700 and 800 channels. The antibodies used for immunobloting included Anti-acetyl-α-Tubulin (SC-23950) and anti-α-Tubulin (SC-32293), which were purchased from Santa Cruz Biotechnology. Anti-HDAC6 (C0226) was from Assay Biotech. Anti-GAPDH (68795) was from Sigma Aldrich. Anti STAT3 (12640), anti P-STAT3 Y-705 (9138), anti P-STAT3 S727 (9136), and anti Acetil-STAT3 (2523) were purchased from Cell signaling. Anti PD-L1 (PA5-28115) was obtained from Thermo Scientific. Anti-FLAG (F1804) antibody was from Sigma. […]

[4] = Hepatocyte stability, human; type: in vitro ADME; details: human hepatocytes
[5] = test system: Salmonella typhimurium (TA98 and TA1537); assay: Mini-Ames test; type: cell-based; details: two Salmonella typhimurium strains, presence and absence of S9 mix
Experimental: […]. SS-2-08 was incubated with two strains of Salmonella typhimurium (TA98 and TA1537) in the presence and absence of mammalian microsomal enzymes (S9 mix) to investigate the possible mutagenicity of this compound. […].

[6] = Hepatocyte stability, mouse; type: in vitro ADME; details: mouse hepatocytes
[7] = test system: Human melanoma WM164 cells; assay: HDAC assay in WM164 cells; type: cell-based; details: different concentrations
[8] = molecular target: hERG (Homo sapiens, UniProt Q12809); assay: cell-based
hERG, sequence (Q12809 whole entry): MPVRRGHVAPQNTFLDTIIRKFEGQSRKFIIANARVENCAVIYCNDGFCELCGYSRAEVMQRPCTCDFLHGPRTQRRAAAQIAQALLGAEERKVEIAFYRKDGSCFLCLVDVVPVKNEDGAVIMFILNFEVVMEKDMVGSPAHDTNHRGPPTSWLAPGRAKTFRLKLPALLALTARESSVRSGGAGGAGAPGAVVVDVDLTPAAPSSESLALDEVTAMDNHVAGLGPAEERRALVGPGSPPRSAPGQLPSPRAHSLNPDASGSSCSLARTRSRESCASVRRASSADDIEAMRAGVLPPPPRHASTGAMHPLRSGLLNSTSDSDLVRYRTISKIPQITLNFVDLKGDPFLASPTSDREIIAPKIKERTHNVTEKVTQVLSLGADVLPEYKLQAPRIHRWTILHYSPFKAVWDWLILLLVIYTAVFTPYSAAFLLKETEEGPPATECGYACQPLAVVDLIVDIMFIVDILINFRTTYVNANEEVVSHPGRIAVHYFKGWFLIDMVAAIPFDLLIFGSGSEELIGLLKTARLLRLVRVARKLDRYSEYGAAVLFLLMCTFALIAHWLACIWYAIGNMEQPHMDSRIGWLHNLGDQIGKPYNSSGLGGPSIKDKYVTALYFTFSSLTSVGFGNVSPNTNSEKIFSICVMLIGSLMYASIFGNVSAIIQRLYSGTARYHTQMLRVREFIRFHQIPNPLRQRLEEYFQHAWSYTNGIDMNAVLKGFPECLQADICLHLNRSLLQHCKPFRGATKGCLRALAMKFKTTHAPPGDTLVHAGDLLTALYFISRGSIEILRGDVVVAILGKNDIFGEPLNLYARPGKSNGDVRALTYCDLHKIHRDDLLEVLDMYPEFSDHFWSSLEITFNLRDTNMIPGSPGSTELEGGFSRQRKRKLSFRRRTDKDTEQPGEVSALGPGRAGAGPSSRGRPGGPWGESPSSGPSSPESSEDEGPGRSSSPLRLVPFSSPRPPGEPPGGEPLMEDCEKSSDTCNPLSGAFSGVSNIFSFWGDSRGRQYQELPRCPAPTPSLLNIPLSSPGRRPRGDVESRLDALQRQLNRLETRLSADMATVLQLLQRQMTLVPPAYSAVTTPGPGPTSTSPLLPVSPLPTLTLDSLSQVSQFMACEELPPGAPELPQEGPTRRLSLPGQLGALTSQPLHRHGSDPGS

[9] = test system: SM1 melanoma tumor; assay: Syngeneic SM1 murine melanoma tumor model; type: in vivo, C57/BL/6 mice; details: 25 mg/kg and 50 mg/kg intraperitoneally, three times a week
Experimental: Animal experiments involving mice were performed in accordance to all approved protocols by the IACUC at The George Washington University. C57/BL/6 mice were obtained from Charles River (Massachusetts-Wilmington, USA). Mice for the in vivo tumor studies were subcutaneously injected in the right flank with 1.0×10^6 SM1 melanoma cells suspended in 100 μL 1× Phosphate Buffer Saline (PBS). After subcutaneous injection, tumor growth was monitored until they became palpable. Once palpable (5-8 mm in diameter), the animals were then treated with a vehicle control, or SS-2-08 at a dose of 25 mg/kg and 50 mg/kg, intraperitoneally, three times a week. Tumor growth was recorded twice a week. When the tumors reached 4000 mm^3, mice were euthanized. The values collected are represented as the mean tumor volume (mm^3) and standard deviation for treatment groups.

[10] = test system: Human melanoma WM164 cells; assay: Cytotoxicity assay (CellTox) in WM164 cells; type: cell-based; details: different concentrations, 24 hour reading
Experimental: All cells were cultured in RPMI 1640 media, supplemented with 10% FBS, penicillin/streptomycin (50 U/ml), L-glutamine (2 mM), and 2-mercaptoethanol ([…]) (complete media), and grown under humidified conditions at 37° C. and 5% CO2.
Cells were plated at a desired density in a black, flat clear bottom, 96 well plate. After 24 hours of cell growth, the media was removed from all the wells, fresh media was added with the fluorescent CellTox dye, using the manufactured protocol. The plate was then treated with the compounds of interest at the various concentrations of the compound. Immediately after plating, a baseline reading was performed. The plate was then incubated for 24 hours before the next reading was done, which was considered the 24 hour reading. Assay measurements were collected using the SoftMax Pro Microplate Data Acquisition and Analysis Software paired with Molecular Devices spectrophotometer (SpectraMax).
Human melanoma WM164 cells were treated with different concentrations SS-2-08 and SS-01-100 to evaluate the HDAC activity associated with the potential cytotoxic effect of these compounds.

[11] = Liver microsomal stability, human; type: in vitro ADME; details: human liver microsomes
[12] = Liver microsomal stability, mouse; type: in vitro ADME; details: mouse liver microsomes
[13] = test system: Murine melanoma SM1 cells; assay: ApoTox-Glo Triplex Assay, apoptosis; type: cell-based
Experimental: Murine melanoma SM1 cells were cultured in RPMI 1640 medium supplemented with: 1% minimum essential medium (MEM) non-essential amino acids solution, 10% fetal bovine serum (FBS), and 1% penicillin-streptomycin (P/S) then grown under humidified conditions at 37° C. and 5% CO2.
The assay controls—Digitonin (D141-100MG), Ionomycin (I064-1MG) and Mitomycin C (M4287-2MG)—were purchased from Sigma. Through a control plate evaluation, the optimal control concentration was selected for HDACi on the compound plates—30 μg/mL Digitonin, 100 μM Ionomycin, and 25 μg/mL Mitomycin.
Murine melanoma cells were treated with individual HDACi along with the protocol recommended assay controls. Following the manufacturers protocol, Viability/Cytotoxity reagents were added—fluorescence was measured at […] 400Ex/505Em (viability) and 485Ex/520Em (cytotoxicity). Next, the Caspase 3/7 reagent was added, after incubation, luminescence was measured at Lm578 (apoptosis). Assay measurements were collected using the SpectraMax. During analysis, LBH is used as the control compound.

| Compound | IC50 [2] [nM] | IC50 [1] [nM] | Selectivity HDAC1/HDAC6 [2] | further results |
| --- | --- | --- | --- | --- |
| O=C(NO)c1cc(CCCCN2c3ccc(Cl)cc3CCc3cc(Cl)ccc32)on1 [SS-1-54, 5-(4-(2,8-dichloro-10,11-dihydro-5H-dibenzo[bf]azepin-5-yl)butyl)-N-hydroxyisoxazole-3-carboxamide] | 1340 | – | – | IC50 (nM) HDAC1 [1]: No inhibition |
| CC1(C)CCN(CCCCc2cc(C(=O)NO)no2)c2ccc(Cl)cc21 [SS-4-02, 5-(4-(6-chloro-4,4-dimethyl-3,4-dihydroquinolin-1(2H)-yl)butyl)-N-hydroxyisoxazole-3-carboxamide] | 4360 | 174000 | 40 | – |
| O=C(NO)c1cc(CCCCN2CCCc3cc(Cl)ccc32)on1 [SS-4-01, 5-(4-(6-chloro-3,4-dihydroquinolin-1(2H)-yl)butyl)-N-hydroxyisoxazole-3-carboxamide] | 1990 | 44000 | 22 | – |
| O=C(NCCc1cc(C(=O)NO)no1)c1ccc(Cl)c(Cl)c1 [SS-2-08, 5-(2-(3,4-dichlorobenzamido)ethyl)-N-hydroxyisoxazole-3-carboxamide] | – | – | – | levels of acetylated tubulin [3]: increased; Hepatocyte stability (t1/2 min) Human [4]: 1.8 h; Mini-Ames test [5]: No significant number of revertant colonies; also recorded: Negative; Hepatocyte stability (t1/2 min) Mouse [6]: 0.367 h; HDAC activity [7]: reduced the HDAC activity in a dose-dependent manner; IC50 [8]: > 30000 nM; tumor growth [9]: reduces in vivo tumor growth; cytotoxicity [10]: minimal cytotoxicity effects; Liver microsomal stability (t1/2 min, with NADPH) Human [11]: 2.25 h; Liver microsomal stability (t1/2 min, with NADPH) Mouse [12]: 0.617 h; apoptosis (Caspase 3/7) [13]: does not induce apoptosis |
| O=C(NO)c1cc(CCCCn2ccc3cc(Cl)c(Cl)cc32)on1 [SS-3-94, 5-(4-(5,6-dichloro-1H-indol-1-yl)butyl)-N-hydroxyisoxazole-3-carboxamide] | 693 | 11200 | 16 | – |

The remaining molecules from weak to strong by IC50 [2], led by results:

| IC50 [2] [nM] | IC50 [1] [nM] | Selectivity HDAC1/HDAC6 [2] | Compound | further results |
| --- | --- | --- | --- | --- |
| 195 | – | – | O=C(NO)c1cc(CCCOc2ccc(Cl)c(Cl)c2)on1 [SS-4-10, 5-(3-(3,4-dichlorophenoxy)propyl)-N-hydroxyisoxazole-3-carboxamide] | – |
| 194 | – | – | O=C(NCCc1cc(C(=O)NO)no1)c1ccccc1 [SS-1-100, 5-(2-Benzamidoethyl)-N-hydroxyisoxazole-3-carboxamide] | levels of acetylated tubulin [3]: increased; HDAC activity [7]: reduced the HDAC activity in a dose-dependent manner; cytotoxicity [10]: minimal cytotoxicity effects; IC50 (nM) HDAC1 [1]: No inhibition |
| 24.1 | 2040 | 85 | O=C(NCCc1cc(C(=O)NO)no1)c1cccc(-c2ccccc2)c1 [SS-3-67, 5-(2-([1,1′-biphenyl]-3-ylcarboxamido)ethyl)-N-hydroxyisoxazole-3-carboxamide] | – |
| 10.3 | 3030 | 294 | O=C(NCCc1cc(C(=O)NO)no1)c1ccc2ccccc2c1 [SS-3-66, 5-(2-(2-naphthamido)ethyl)-N-hydroxyisoxazole-3-carboxamide] | – |
